6 compounds from PMC6465285, “Arsinothricin, an arsenic-containing non-proteinogenic amino acid analog of glutamate, is a broad-spectrum antibiotic” (Communications Biology, 2019) can be followed below.

Data set [1] concerns the target T1, SvPAT (phosphinothricin N-acetyltransferase) (Streptomyces viridochromogenes, UniProt Q57146).
T1 construct: gene pat
The data set is described as follows: DTNB acetyltransferase assay, Km. The settings on record: read-out: Specific activity (nmol s^-1 mg^-1 PpArsN1) / Km.

The target in data set [2] is T2, PpArsN1 (ArsN1 N-acetyltransferase) (Pseudomonas putida, UniProt Q88LK7).
T2 construct: gene PP_1924

Data set [3] addresses T2, PpArsN1 (ArsN1 N-acetyltransferase). This is another data set of the same source.
For data set [4], the target named is T3, glutamine synthetase (Escherichia coli, UniProt P0A9C5).
T3 construct: gene glnA
The data set is described as follows: coupled ADP/NADH oxidation assay with purified enzyme. The data set is classed as biochemical.

Data set [5] has as its target T3, glutamine synthetase. The data set is described as follows: coupled ADP/NADH oxidation assay, Km. The data set is classed as biochemical.
For data set [6], the target named is PpArsN1, arsinothricin N-acetyltransferase ArsN1 of Pseudomonas putida KT2440 (Pseudomonas putida KT2440). The data set is described as follows: SEC; size-exclusion chromatography of purified PpArsN1 in solution (Supplementary Figure 2); conditions not given. On the technique in general: SEC sorts molecules by how far they enter the pores of the column.
In data set [7] the test system is CP(=O)(O)CC[C@H](N)C(=O)O. Briefly: purified protein. As to conditions: acetyl coenzyme A.

T3 sequence (P0A9C5 2-469): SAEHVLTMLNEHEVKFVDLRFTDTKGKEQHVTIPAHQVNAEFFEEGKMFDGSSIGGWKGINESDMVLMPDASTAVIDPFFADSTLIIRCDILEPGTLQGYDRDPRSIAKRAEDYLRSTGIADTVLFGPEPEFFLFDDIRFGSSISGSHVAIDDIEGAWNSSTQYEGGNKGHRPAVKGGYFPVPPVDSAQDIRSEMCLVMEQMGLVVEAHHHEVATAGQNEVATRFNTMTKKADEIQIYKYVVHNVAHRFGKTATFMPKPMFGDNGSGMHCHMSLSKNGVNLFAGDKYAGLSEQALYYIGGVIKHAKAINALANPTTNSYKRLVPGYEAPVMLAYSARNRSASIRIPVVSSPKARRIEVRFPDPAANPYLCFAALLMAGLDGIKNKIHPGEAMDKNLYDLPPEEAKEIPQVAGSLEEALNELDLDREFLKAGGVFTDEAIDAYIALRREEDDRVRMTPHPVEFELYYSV
T1 sequence (Q57146 whole entry, looked up): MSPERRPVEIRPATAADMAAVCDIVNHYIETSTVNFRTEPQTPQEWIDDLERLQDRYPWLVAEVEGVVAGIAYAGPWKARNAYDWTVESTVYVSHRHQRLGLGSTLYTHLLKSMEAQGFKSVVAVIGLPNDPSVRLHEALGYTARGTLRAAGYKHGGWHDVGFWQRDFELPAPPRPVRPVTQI

As for `C[As](=O)(O)CC[C@H](N)C(=O)O` [AST, 2-amino-4-(hydroxymethylarsinoyl)butanoate], the Km in data set [1] was 12 ± 2 µM; in data set [2] it was 11 ± 3 µM. Take `CS(=N)(=O)CC[C@H](N)C(=O)O` (stereo partly drawn) [L-MSO, L-methionine sulfoximine]: the “Specific activity (nmol s^-1 mg^-1 PpArsN1) / Substrate” value in data set [3] worked out at 2.1 ± 0.1 nmol/s/mg.

As for `CP(=O)(O)CC[C@H](N)C(=O)O` [L-PPT, 2-amino-4-(hydroxymethylphosphinyl)butanoate], the Ki on glutamine synthetase [4] was 400 ± 150 nM. As to `N[C@@H](CCC(=O)O)C(=O)O` [L-glutamate], on glutamine synthetase [5], the Km was 2700 ± 600 µM. On to “PpArsN1, arsinothricin N-acetyltransferase ArsN1 of Pseudomonas putida KT2440 (enzyme)”, for which the stoichiometry N in data set [6] worked out at 2. As to “SvPAT (phosphinothricin N-acetyltransferase) (Streptomyces viridochromogenes DSM 40736)”, in data set [7], the Km amounted to 47 ± 2 µM, the kcat was found to be 3.1 s⁻¹ and the catalytic efficiency (kcat/Km) amounted to 66000 M⁻¹ s⁻¹.

For orientation: Ki means the dissociation constant of the complex between target and ligand, obtained from inhibition or displacement. A low value points to higher affinity. The term stoichiometry N denotes the number of molecules, sites or subunits per partner or assembly. By kcat is commonly meant the maximal rate divided by the concentration of active sites. What is called kcat/Km is the second-order rate constant that governs catalysis at low substrate concentration.
